Read-outs that look alike come from different tables or passages of the source.
Columns and labels:
[1] = test system: TS/A (ER+, Her2−) murine mammary cancer cells; experiment: MTT cell viability assay, TS/A cells; format: cell-based; conditions: Mus musculus, 24 h, read-out: IC50 on cell viability, TS/A (ER+, Her2−)
Procedure: (§1) Normal or cancer cells (2×10^3 to 1×10^4 cells/well) were seeded in 96-well plate for overnight and treated with different compounds for 24 h to 72 h. Cells growth were determined by MTT-based colorimetric assays according to. Viability of the test cells treated with vehicle (0.5% DMSO) only was defined as 100% viable. Survival of cells after treatment with DETDs was calculated using the following formula: viable cell number (%)=OD570 (treated cell culture)/OD570 (vehicle control)×100.
(§2) Sixty DETDs were derived from parental compound […] and tested for anti-breast cancer cell activity.

[2] = test system: MDA-MB-231 (ER−, PR−, Her2−) human breast cancer cells; experiment: MTT cell viability assay, MDA-MB-231 cells; format: cell-based; conditions: Homo sapiens, MDA-MB-231, 24 h, read-out: IC50 on cell viability, MDA-MB-231 (ER−, PR−, Her2−)
Procedure: as §1, §2

[3] = test system: MCF-7 (ER+, Her2−) human breast cancer cells; experiment: MTT cell viability assay, MCF-7 cells; format: cell-based; conditions: MCF7, 24 h, read-out: IC50 on cell viability, MCF-7 (ER+, Her2−)
Procedure: as §1, §2

[4] = test system: M10 normal mammary epithelial cells; experiment: MTT cell viability assay, M10 normal cells; format: cell-based, human; conditions: 24 h; for IC50: Homo sapiens, Epithelial cell
Procedure: as §1, §2

B16-F10 (NRAS mutation) = experiment: MTT cell viability assay, B16-F10 melanoma; format: cell-based; conditions: Mus musculus, B16-F10, 24 h, read-out: IC50 on cell viability, B16-F10 (NRAS mutation)
Procedure: as §1
(§3) Several genes are involved in melanoma development and pathology; specifically, mutation in V-raf murine sarcoma viral oncogene homolog B1 (B-RAF) occurs approximately 50-60% and in neuroblastoma RAS viral oncogene homolog (N-RAS) occurs about 30% of malignant melanomas. A spectrum of wild-type or mutated melanoma cell lines including B16-F10, MeWo, A375, A2058, HTB-68, and melanocyte were used to study anti-melanoma cell proliferation activity of parental phytocompound DET and newly synthesized DETDs.

[5] = test system: MeWo (No NRAS or BRAF mutation); experiment: MTT cell viability assay, MeWo melanoma; format: cell-based, human; conditions: Homo sapiens, MeWo, 24 h
Procedure: as §1, §3

HTB-68 (NRAS mutation) = experiment: MTT cell viability assay, HTB-68 melanoma; format: cell-based, human; conditions: Homo sapiens, 24 h
Procedure: as §1, §3

A2058 (BRAF mutation) = experiment: MTT cell viability assay, A2058 melanoma; format: cell-based, human; conditions: Homo sapiens, A2058, 24 h
Procedure: as §1, §3

A375 (BRAF mutation) = experiment: MTT cell viability assay, A375 melanoma; format: cell-based, human; conditions: Homo sapiens, A-375, 24 h, read-out: IC50 on cell viability, A375 (BRAF mutation)
Procedure: as §1, §3
To investigate whether or not DETD-35 show synergism with PLX4032 against A375 melanoma cells, we performed anti-proliferation assay using MTT reagent to obtain IC50 of each compound. […] The synergistic effect was quantified by combination index (CI) analysis as stated above.

[6] = test system: Melanocyte (Normal cells); experiment: MTT cell viability assay, normal melanocytes; format: cell-based, human; conditions: Homo sapiens, Melanocyte, 24 h
Procedure: as §1, §3

[7] = test system: RAW264.7 (normal macrophage); experiment: MTT cell viability assay, RAW264.7 macrophages; format: cell-based, mouse; conditions: Mus musculus, RAW264.7, 24 h
Procedure: as §1
(§4) Marcophages (2×10^5 cells/well in 96-well plate) were treated with compounds for 1 h, then incubated further for 24 h with or without the presence of […] LPS in the cultural medium. Nitrite levels in cell culture medium were determined by the Griess reaction method. In parallel to the Griess assays, macrophage cell viabilities were determined using the MTT based colorimetric assay.

[8] = test system: LPS-induced nitric oxide (NO) production in RAW 264.7 cells; experiment: Nitric oxide production in LPS-stimulated macrophages (Griess); format: cell-based, mouse; conditions: Mus musculus; LPS-stimulated RAW264.7, nitrite 24 h after LPS
Procedure: as §4
LPS from the outer membrane of Gram-negative bacteria can induce mRNA or protein levels of inducible nitric oxide synthase (iNOS), which catalyzes oxidative deamination of L-arginine to produce nitric oxide (NO). Once NO is predominantly produced, it interacts with superoxide anion and generates highly reactive oxidants resulting in cellular inflammation, DNA, protein and tissue damages, carcinogenesis, and antiapoptosis. We used in vitro LPS stimulated inflammation in RAW264.7 cell system to evaluate the effect of DET and its derivatives DETDs on NO production by determination of nitrite level (equivalent to NO level) in culture medium 24 h after LPS treatment.

[9] = test system: melanoma cell lines B16-F10, MeWo, A375, A2058, HTB-68; experiment: MTT cell viability assay, all melanoma cell lines; format: cell-based; conditions: 24 h, read-out: IC50 values over all types of melanoma cell lines
Procedure: as §1, §3

SMILES	IC50 [1] [µM]	IC50 [2] [µM]	IC50 [3] [µM]	IC50 [4] [µM]	IC50 (B16-F10 (NRAS mutation); 24 h) [µM]	IC50 [5] [µM]	IC50 (HTB-68 (NRAS mutation)) [µM]	IC50 (A2058 (BRAF mutation)) [µM]	IC50 (A375 (BRAF mutation); 24 h, MTT) [µM]	IC50 [6] [µM]	IC50 [7] [µM]	IC50 [8] [µM]	IC50 [9] [µM]	IC50 (B16-F10 (NRAS mutation)) [µM]	IC50 (A375 (BRAF mutation)) [µM]	IC50 on cell viability, M10 (normal) [4]
C=C1C(=O)OC2CC3=C[C@@H](C/C(C)=C/C(OC(=O)c4cccs4)[C@H]12)OC3=O (stereo partly shown) [DETD-30]	2.4	4.3	3.7	> 7.5	2.5	9.1	7.6	5.2	3.4	> 10	> 10	1.6	1.6 to 9.9			
C=C1C(=O)OC2CC3=C[C@@H](C/C(C)=C/[C@@H](OC(=O)Cc4csc5ccccc45)[C@H]12)OC3=O (stereo partly shown) [DETD-58]	2.1	3.8	3.8	5.8	5.6	8.3	3.8	5	2.1	> 10	> 10	3.6	1.6 to 9.9			
C=C1C(=O)OC2CC3=C[C@@H](C/C(C)=C/C(OC(=O)c4ccc(C)cc4)[C@H]12)OC3=O (stereo partly shown) [DETD-33]	1.8	4.2	2.7	> 7.5	2.2	6.7	5.9	4.2	2.9	> 10	> 10	1.9	1.6 to 9.9			
C=C1C(=O)OC2CC3=C[C@@H](C/C(C)=C/C(OC(=O)/C=C/c4ccc(Cl)cc4)[C@H]12)OC3=O (stereo partly shown) [DETD-28]	1.8	4.2	3.6	4.8	3.9	6.7	6.1	4.4	3	> 10	> 10	2.1	1.6 to 9.9			
C=C1C(=O)OC2CC3=C[C@@H](C/C(C)=C/C(OC(=O)c4ccc(Br)cc4)[C@H]12)OC3=O (stereo partly shown) [DETD-34]	3	2.2	6.1	> 7.5	2	7.3	6.8	4.4	3.1	> 10	> 10	2.3	1.6 to 9.9			
C=C1C(=O)OC2CC3=C[C@@H](C/C(C)=C/[C@@H](OC(=O)[C@@H](OC)c4ccc5ccccc5c4)[C@H]12)OC3=O (stereo partly shown) [DETD-56]	1.9	4.2	4.5	> 7.5	5.3	7.6	4.5	5.2	2.5	> 10	> 10	3	1.6 to 9.9			
C=C1C(=O)OC2CC3=C[C@@H](C/C(C)=C/C(OC(=O)/C=C/C)[C@H]12)OC3=O (stereo partly shown) [DETD-24]	2.3	> 7.5	3.9	> 7.5	> 10	> 10	> 10	> 10	> 10	> 10	> 10	4.4				
C=C1C(=O)OC2CC3=C[C@@H](C/C(C)=C/C(OC(=O)C(Cl)Cl)[C@H]12)OC3=O (stereo partly shown) [DETD-9]	> 7.5	> 7.5	> 7.5	> 7.5	> 10	> 10	> 10	> 10	> 10	> 10	> 10	> 10				
C=C1C(=O)OC2CC3=C[C@@H](C/C(C)=C/C(OC(C)=O)[C@H]12)OC3=O (stereo partly shown) [DETD-17]	3.5	> 7.5	6.7	> 7.5		> 10	> 10	> 10		> 10	> 10	2		> 10	> 10	
C=C1C(=O)OC2CC3=C[C@@H](C/C(C)=C/[C@@H](OC(=O)[C@H](OC)c4ccc5ccccc5c4)[C@H]12)OC3=O (stereo partly shown) [DETD-57]	> 7.5	> 15	> 7.5	> 7.5	8.1	> 10	8	8.3	4.2	> 10	> 10	> 10				
C=C1C(=O)OC2CC3=C[C@@H](C/C(C)=C/C(OC(=O)c4cc5ccccc5s4)[C@H]12)OC3=O (stereo partly shown) [DETD-41]	2.8	5	5.3	> 7.5	5.5	> 10	> 10	> 10	> 10	> 10	> 10	3.5				
C=C1C(=O)OC2CC3=C[C@@H](C/C(C)=C/C(OC(=O)Cc4cccc5cccnc45)[C@H]12)OC3=O (stereo partly shown) [DETD-52]	> 7.5	> 15	> 7.5	> 7.5	> 10	> 10	> 10	> 10	> 10	> 10	> 10	> 10				
C=C(C)C(=O)OC1/C=C(\C)C[C@@H]2C=C(CC3OC(=O)C(=C)[C@@H]13)C(=O)O2 (stereo partly shown) [DETD-4]	1.8	6.2	3.4	> 7.5	4.5	> 10	> 10	> 10	> 10	> 10	> 10	2.2				
C=C1C(=O)OC2CC3=C[C@@H](C/C(C)=C/C(OC(=O)Cc4ccc5cc(OC)ccc5c4)[C@H]12)OC3=O (stereo partly shown) [DETD-46]	3.8	7.3	> 7.5	> 7.5	5.4	6.3	4.5	5	2.6	> 10	> 10	3.1				
C=C1C(=O)OC2CC3=C[C@@H](C/C(C)=C/C(OC(=O)CC(C)CC)[C@H]12)OC3=O (stereo partly shown) [DETD-18]	3.3	5.5	2.6	> 7.5	8.4	> 10	> 10	> 10	> 10	> 10	> 10	3.4				
C=C1C(=O)OC2CC3=C[C@@H](C/C(C)=C/C(OC(=O)/C=C/c4ccc(OC)cc4)[C@H]12)OC3=O (stereo partly shown) [DETD-26]	1.5	4.1	3.7	4.7	5	> 10	> 10	> 10	> 10	> 10	> 10	1.7				some toxicity

From patent US10238631B2, “Sesquiterpene derivatives and their use in inflammation or cancer treatment” (Academia Sinica, priority 2014, dated 2019)
